How the values were obtained:
[1] = test system: human skin (epidermis and dermis intact) tissue cells; assay: alamarBlue viability assay of human skin exposed to ozone; type: cell-based; details: 60 minutes of ozone exposure in sterile normal saline with agitation; 5-20 ppm, 4 C to 25 C
Description: This example measured the effect of ozone on human skin. Human skin (epidermis and dermis intact) was exposed to ozone for various lengths of time. Ozone was pumped through an aqueous solution (sterile normal saline) obtaining levels between 5 and 20 ppm at temperatures between 4 C and 25 C. An alamarBlue™ viability assay, which is supplied by Invitrogen Corporation of Carlsbad, Calif., was used to quantify viability of the tissue cells. The alamarBlue™ dye is reduced by metabolic intermediates within a cell; reduction of the dye is then measured spectrophotometrically.
To perform the alamarBlue™ assay, human skin was sectioned into 6 mm diameter discs and placed individually into wells of a 24-well tissue culture plate. To each sample, 10% alamarBlue™ reagent in RPMI-1640 was added. The plate was incubated at 37° C. on an orbital shaker for 4 hours. Each well was then sampled in triplicate to a 96-well assay plate. The absorbance of the plate was measured at 600 nm and 570 nm, where the […]. The absorbencies were then used to calculate the percent reduction of alamarBlue™ dye, as follows: […]

S. epidermidis = assay: antimicrobial ability of ozone in aqueous solution, plating on agar (CFU); type: cell-based; details: 5-10 ppm ozone in sterile water; for Final (CFU/mL): initial inoculum 2.1 × 10^8 CFU/mL
Procedure: S. epidermidis was subjected to 5-10 ppm ozone in sterile water, followed by plating the organisms onto agar plates and placing the plates in a 37° C. incubator.

SMILES: O=[O+][O-] [Ozone, ozone]
- viability of the tissue cells (percent reduction of alamarBlue dye) [1]: death of the cells within the skin
- Log Reduction (S. epidermidis; 2.5 min exposed to ozone): 8 log
- Final (CFU/mL) (S. epidermidis; 2.5 min exposed to ozone): 0 CFU/mL
- Log Reduction (S. epidermidis; 5 min exposed to ozone): 8 log
- Final (CFU/mL) (S. epidermidis; 5 min exposed to ozone): 0 CFU/mL
- Log Reduction (S. epidermidis; 7.5 min exposed to ozone): 8 log
- Final (CFU/mL) (S. epidermidis; 7.5 min exposed to ozone): 0 CFU/mL
- Log Reduction (S. epidermidis; 10 min exposed to ozone): 8 log
- Final (CFU/mL) (S. epidermidis; 10 min exposed to ozone): 0 CFU/mL
- Log Reduction (S. epidermidis; 20 min exposed to ozone): 8 log
- Final (CFU/mL) (S. epidermidis; 20 min exposed to ozone): 0 CFU/mL
- log reduction in colony forming units (CFU) (S. epidermidis; at 2.5 minutes or longer, total kill of microbes): 8 log

From patent US20100028849A1, “NOVEL PROCESS FOR DEVITALIZED/ACELLULAR TISSUE FOR TRANSPLANTATION” (priority 2006, published 2010)
